Test results reported in patent US20240398699A1 (COSMO TECHNOLOGIES LTD., priority 2017, published 2024).
In brackets after ≈: the same amount, converted by molar mass. Where two headings read alike, the source gives them in different places.

Assays:
[1] = tested on: Methanobrevibacter smithii (DSMZ 11975); test: MIC (Minimum Inhibiting Concentration) on bacterial strain; format: cell-based
[2] = tested on: IL1β-induced synthesis of IL-8 in colonic epithelial cells; test: IL1β-induced IL-8 synthesis in colonic epithelial cells; format: cell-based
Excerpt: PMA or diacyl glycerol-activated PKC is important for T cell receptor or IgE-induced NFκB that occurs in immune cells, like T cells and mast cells, respectively. On the other hand, TNF or LPS-induced NFκB that occurs in colonic epithelial cells requires other signaling factors (TRAFs, TNFR-associated factors). Most importantly, for its relevance in IBS or IBD, NFκB biologic function was confirmed in colonic epithelial cells. […] These cell-dependent requirements for inducing inflammation imply that by acting on various target cells, rifamycin's anti-inflammatory potential is broad because dysregulated immune and epithelial cell interactions contribute to the pathogenesis of several GI disorders.

[3] = tested on: NFκB transcriptional activity; test: NFκB luciferase reporter cell line stimulated with PMA, TNFα or LPS; format: cell-based; conditions: for IC50: 24 hr incubation
Procedure: To establish that NFκB inhibition occurs upon rifamycin-induced PXR activation, a reporter cell line expressing full length NFκB and harboring luciferase reporter gene functionally linked to upstream NFκB genetic response elements, was stimulated with either PMA, TNFα or LPS to induce NFκB. Rifamycin or rifaximin were dose-titrated onto these stimulated cells. After 24 hr incubation, luminescence correlating to NFκB transcriptional activity was quantified.

[4] = tested on: NFkB transcription factor; test: NFkB reporter assay (Indigo Biosciences), antagonist mode, TNFα stimulated human kidney epithelial cells; format: cell-based; conditions: for IC50: Homo sapiens, Epithelial cell, 30 ng/mL TNFα, 24 hours, 2 independent experiments, read-out: Antagonism of NFkB activity IC50 Molar (95% CI range)
Procedure: The NFkB nuclear receptor assay system from Indigo Biosciences utilizes human kidney epithelial cells transiently transfected with an NF-kB reporter. The NFkB biologic activity measured as transcriptional activity from these reporter cells demands the same orchestration of all intracellular molecular interactions and events that can be expected to occur in vivo. Cells were treated under antagonist mode in the presence of 30 ng/mL TNFα to stimulate the NFkB inflammatory cascade. […] After 24 hours, luminescence which is proportional to NFkB transcriptional activity was quantitated. […] The p value was calculated using Prism parametric, paired t test analysis.

human PXR = molecular target: T1, human PXR (Homo sapiens, UniProt O75469); test: PXR nuclear receptor luciferase reporter assay (Indigo Biosciences), agonist mode; format: cell-based; conditions: for EC50: 3 independent experiments, read-out: Agonism of PXR transcriptional activity expressed as EC50 Molar (95% CI range)
T1 construct: host or cells: proprietary human cells engineered to express the hybrid receptor
T1 sequence (O75469 146-433 limits assumed): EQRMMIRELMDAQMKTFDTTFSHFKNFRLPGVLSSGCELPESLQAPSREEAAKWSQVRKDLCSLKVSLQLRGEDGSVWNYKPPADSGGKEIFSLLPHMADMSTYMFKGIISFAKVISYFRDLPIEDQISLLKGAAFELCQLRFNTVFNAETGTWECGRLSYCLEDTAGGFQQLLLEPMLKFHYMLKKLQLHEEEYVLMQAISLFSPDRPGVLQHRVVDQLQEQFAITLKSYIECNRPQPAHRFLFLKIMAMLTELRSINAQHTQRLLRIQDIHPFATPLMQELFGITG
Excerpt: This assay product from Indigo Biosciences (Pennsylvania, USA) utilizes cells that express a hybrid form of human PXR. The N-terminal sequence encoding the PXR DNA binding domain (DBD) was substituted with that of the yeast GAL4-DBD. The native PXR ligand binding domain (LBD) and other C-terminal domains remain intact and functional. Ligand interaction activates the receptor, causing it to bind to the GAL4 DNA binding sequence, which is functionally linked to a resident luciferase reporter gene. Thus, quantifying changes in luciferase activity in the treated reporter cells provides a sensitive surrogate measure of the changes in PXR activity. The principle application of this reporter assay system is in the screening of test samples to quantify any functional activity, either agonist or antagonist, that they may exert against human PXR. […] The p value was calculated using Prism parametric, paired t test analysis.

[5] = Safety and tolerability in healthy volunteers; format: in vivo, human
[6] = PMA stimulus, read-out: IC50, antagonism of PMA-induced NFκB activity
[7] = up to the highest concentration tested

NC[C@@H]1O[C@H](O[C@H]2[C@@H](O)[C@H](O[C@@H]3[C@@H](O)[C@H](N)C[C@H](N)[C@H]3O[C@H]3O[C@H](CN)[C@@H](O)[C@H](O)[C@H]3N)O[C@@H]2CO)[C@H](N)[C@@H](O)[C@@H]1O [Neomycin]
MIC [1]: >100 µg/mL

CO[C@H]1/C=C/O[C@@]2(C)Oc3c(C)c([O-])c4c(O)c(cc(O)c4c3C2=O)NC(=O)/C(C)=C\C=C\[C@H](C)[C@H](O)[C@@H](C)[C@@H](O)[C@@H](C)[C@H](OC(C)=O)[C@@H]1C.[Na+] [Rifamycin SV sodium]
MIC [1]: <1 µg/mL

CO[C@H]1/C=C/O[C@@]2(C)Oc3c(C)c(O)c4c(O)c(cc(O)c4c3C2=O)NC(=O)/C(C)=C\C=C\[C@H](C)[C@H](O)[C@@H](C)[C@@H](O)[C@@H](C)[C@H](OC(C)=O)[C@@H]1C [Rifamycin SV, (2S,12Z,14E,16S,17S,18R,19R,20R,21S,22R,23S,24E)-21-(acetyloxy)-6,9,17,19-tetrahydroxy-23-methoxy-2,4,12,16,18,20,22-heptamethyl-1,11-dioxo-1,2-dihydro-2,7-(epoxypentadeca[1,11,13]trienimino)naphtho[2,1-b]furan-5-ol]
IL1β-induced synthesis of IL-8 [2]: significantly inhibited | IC50 ([3]; LPS stimulus, read-out: IC50, antagonism of LPS-induced NFκB activity): 3490 nM | times higher potency than rifaximin, PMA-induced NFκB activity ([3]; PMA stimulus): 6 times | IC50 [3, 6]: 15.6 nM | IC50 ([3]; TNFα stimulus, read-out: IC50, antagonism of TNFα-induced NFκB activity): 14800 nM | IC50 [4]: 23 nM | times more potent than rifaximin at inhibiting NFkB transcriptional activity ([4]; vs rifaximin): 4000 times | EC50 (human PXR): 6.08 nM | times more potent than rifaximin in stimulating PXR transcriptional activity (human PXR; from rifaximin at 30 μM vs rifamycin SV at 0.3 μM): 250 times | times more potent than rifampicin (PXR) (human PXR; vs rifampicin, positive control): 180 times | times more potent than rifaximin at stimulating PXR transcriptional activity (human PXR; vs rifaximin): 200-440 times | change in vital signs, BW, ECGs or laboratory parameters ([5]; after treatment, 600 mg t.i.d., 14 days): No significant change | change in liver or kidney functions ([5]; during the multiple doses treatment): No significant change | discontinuation due to AEs ([5]; tablets of Example 1, 600 mg t.i.d., 14 days): no subject discontinued the study due to AEs | severe AEs ([5]; tablets of Example 1, 600 mg t.i.d., 14 days, 18 healthy subjects): No severe AEs were reported

CO[C@H]1/C=C/O[C@@]2(C)Oc3c(C)c(O)c4c(O)c(c5c(nc6cc(C)ccn65)c4c3C2=O)NC(=O)/C(C)=C\C=C\[C@H](C)[C@H](O)[C@@H](C)[C@@H](O)[C@@H](C)[C@H](OC(C)=O)[C@@H]1C [Rifaximin]
IC50 [3, 6]: 93.9 nM | inhibition of LPS-induced NFκB activity [3, 7]: did not inhibit | inhibition of TNFα-induced NFκB activity [3, 7]: did not inhibit | MIC ([1]; DSMZ11975, read-out: MIC): 25 µg/mL (≈ 31.8 µM) | IC50 [4]: 83000 nM | EC50 (human PXR): 1800 nM | times less potent than rifamycin SV at 0.3 μM (PXR) (human PXR; rifaximin at 30 μM): 2.5 times

Cc1ncc([N+](=O)[O-])n1CCO [Metronidazole]
MIC ([1]; DSMZ11975, read-out: MIC): 25 µg/mL (≈ 146 µM)
